According to US10849915B2, “Methods for treating inflammatory bowel disease using prostate specific membrane antigen (PSMA) inhibitors” (The Johns Hopkins University, priority 2014, dated 2020):

Legend:
DSS-induced colitis = test: DSS-induced murine model of colitis; format: in vivo, mice (C57/B6)
From the text: DSS-induced colitis model was generated as described previously (Alex et al., 2009; Alex et al., 2010). […] The fact that mutations in either IL-10 or IL-10 receptors in human lead to spontaneous Crohn's disease at very early age (usually less than 1 year old) (Glocker et al., 2011), further emphasize the critical role of IL-10 signaling pathway in its anti-inflammatory and immune-modulatory effects in the gut and the homeostasis of healthy gut.

PSMA = target: T1, PSMA (Mus musculus, UniProt O35409); test: GCPII (PSMA) ex vivo activity assay on mucosa extract of DSS colitis mice; format: biochemical; conditions: DSS-treated mice, extract from mucosa; FIG. 4
T1 construct: from tissue; host or cells: colonic or cecal mucosa of C57/B6 mice with DSS-induced colitis (sonicated tissue lysate supernatant)
Procedure: On the day of the ex vivo experiment, the tissues were weighed and immersed in 0.5 ml of ice-cold 50 mM Tris Buffer (pH 7.7 at RT). While on ice, each tissue was sonicated for 30-60 seconds (medium output, 60) via use of a Kontes Ultrasonic Cell Disrupter. After a 2 min spin at 13,000 rpm, supernatants were analyzed for protein content (Dc Protein Assay Kit; Bio Rad). NAAG-hydrolyzing activity measurements were carried out, based on published procedures Robinson et al., 1987; Rojas et al., 2002). Briefly, the reaction mixture (total volume of 50 μL) contained NAA[3H]G (70 nM, 50 Ci/mmol) and tissue lysates (7 concentrations each, tested in quadruplicate), in Tris-HCl (pH 7.4, 40 mM) containing 1 mM CoCl2. Assay standards were comprised of human recombinant GCPII enzyme (40-200 pM, final). The reaction was carried out at 37° C. for 40-45 min and stopped with ice-cold sodium phosphate buffer (pH 7.4, 0.1 M, 50 μL). Blanks were obtained by incubating the reaction mixture in the absence of enzyme source. A 90 μL aliquot from each terminated reaction was transferred to a well in a 96-well spin column containing AG1X8 ion-exchange resin; the plate was centrifuged at 1500 rpm for 5 min using a Beckman GS-6R centrifuge equipped with a PTS-2000 rotor. […] The radioactivity corresponding to [3H]-G was determined with a scintillation counter (Topcount NXT, Packard, counting efficiency 80%). […]

[1] = test system: spontaneous colitis in IL-10 KO mice; test: IL-10 knockout mice with spontaneous colitis; format: in vivo, mice (C57/B6)
[2] = 2-PMPA 100 mg/kg i.p., daily for 8 days, DSS mice, 2 h after dosing on day 8
Procedure: Blood and colonic mucosa were collected for drug PK analysis. Plasma was generated from blood by centrifugation and all samples were stored at −80° C. until further analysis. Concentrations of inhibitors in plasma and tissue were determined via LC/MS/MS as described previously (Rais et al., 2013). Briefly, 2-PMPA was extracted from plasma and tissue by protein precipitation with 5× methanol containing 2-(phosphonomethyl) succinic acid (2-PMSA; 1 μM) as an internal standard. The samples were vortexed (30 s) and centrifuged (10,000 g for 10 min). Supernatant was dried under a gentle stream of nitrogen at 45° C. and the residue was reconstituted with 100 μL of acetonitrile and vortexed. 50 μL of derivatizing agent N-tert-Butyldimethysilyl-N-methyltrifluoro-acetamide (MTBSTFA) was added to microcentrifuge tubes, vortexed, and heated at approximately 60° C. for 40 min. At the end of 40 min, the derivatized samples were analyzed via LC/MS/MS. Chromatographic analysis was performed using an Accela™ ultra high-performance system consisting of an analytical pump, and an autosampler coupled with TSQ Vantage mass spectrometer (Thermo Fisher Scientific Inc., Waltham Mass.). […] The [M+H]+ ion transitions of derivatized 2-PMPA at m/z 683.0>551.4 and that of the internal standard at m/z 669.0>537.2 were monitored with the total run time of 5 min. […]

T1 sequence (O35409 whole entry): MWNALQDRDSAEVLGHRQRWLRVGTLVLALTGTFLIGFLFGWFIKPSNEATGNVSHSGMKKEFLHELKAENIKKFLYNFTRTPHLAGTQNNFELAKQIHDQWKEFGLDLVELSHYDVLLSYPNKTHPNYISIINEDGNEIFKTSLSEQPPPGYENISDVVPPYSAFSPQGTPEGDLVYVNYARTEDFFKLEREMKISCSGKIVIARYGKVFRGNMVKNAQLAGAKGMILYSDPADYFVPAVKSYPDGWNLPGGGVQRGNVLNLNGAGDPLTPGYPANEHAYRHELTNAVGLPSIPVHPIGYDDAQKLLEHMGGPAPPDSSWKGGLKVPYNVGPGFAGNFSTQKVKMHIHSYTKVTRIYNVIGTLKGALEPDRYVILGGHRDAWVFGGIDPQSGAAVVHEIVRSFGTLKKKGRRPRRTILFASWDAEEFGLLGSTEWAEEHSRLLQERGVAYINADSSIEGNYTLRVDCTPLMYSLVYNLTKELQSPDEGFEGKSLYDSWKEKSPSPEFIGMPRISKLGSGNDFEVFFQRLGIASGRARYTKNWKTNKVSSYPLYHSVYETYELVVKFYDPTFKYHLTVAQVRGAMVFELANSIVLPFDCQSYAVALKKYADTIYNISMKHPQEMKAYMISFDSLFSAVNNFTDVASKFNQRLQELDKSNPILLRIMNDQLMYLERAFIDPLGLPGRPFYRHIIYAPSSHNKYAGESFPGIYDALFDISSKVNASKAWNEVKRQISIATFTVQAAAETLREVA

## O=C(O)CCC(CP(=O)(O)O)C(=O)O (stereo not drawn) [2-PMPA, 2-(phosphonomethyl)-pentanedioic acid]
DSS-induced colitis; DSS 2.5%, 7 days in drinking water, 2-PMPA 100 mg/kg given simultaneously, vs vehicle, P<0.05, FIG. 3
  Disease activity index (DAI): ameliorates disease activity
DSS-induced colitis; DSS-induced murine model of colitis, FIG. 5
  size and weight of spleen: reduces
DSS-induced colitis; mice with DSS-colitis, FIG. 5
  spleen inflammation: significantly reduced
PSMA
  PSMA activity in the colonic and cecal mucosa: potently inhibited
[1]; 2 of the 20 IL-10 KO mice treated, 100 mg/kg for 2 weeks, FIG. 6D
  mice with complete retraction of prolapse: 10%
[1]; IL-10 KO mice, 3 month old, 2-PMPA 100 mg/kg for 2 weeks, FIGS. 6A-6B
  disease severity (macroscopic disease, colonic hypotrophy, stool consistency): significantly reduced
[1]; compared to untreated control IL-10 KO mice, FIG. 6C
  body weight of prolapse-retracting mice: increased dramatically
[2]
  2-PMPA concentration in plasma and colon: approximately 25 μM

## CC(C)OC(=O)OCOC(=O)C(CCC(=O)O)CP(=O)(OCOC(=O)OC(C)C)OCOC(=O)OC(C)C (stereo not drawn) [Tris-POC-2-PMPA]
DSS-induced colitis; oral administration, n=5 per group, P 0.06, not statistically significant, FIG. 9
  colon shortening of DSS-colitis mice: reversed
